Data published in patent US10830763B2, “Component analysis device, drug component analysis device, component analysis method, and drug component analysis method” (Hitachi High-Technologies Corporation, priority 2015, dated 2020).

System: liver cells
Assay: Distribution ratio into fractions and efflux scoring of a fluorescent drug in cultured liver cells (Steps 0-6, plate reader)
Format: in vitro ADME, rat
Description: In this step, liver cells are prepared and cultured for verifying an effect of a drug. An example will be shown below. The preparation of liver cells was made according to an in-situ collagenase perfusion method. The detail is as follows. A rat (5 to 6 weeks old) is subjected to laparotomy under pentobarbital anesthesia, and a catheter is inserted into the portal vein and a pre-perfusion fluid (Hanks' solution not containing Ca2+ and Mg2+ but containing EGTA) is injected.
Liver cells prepared by the in-situ collagenase perfusion method as described above are suspended in a medium, and the liver cells in the suspension at a density of 5×10^5 cells/mL are seeded on a commercially available collagen-coated culture dish, to conduct two dimensional plane culture (for example, sandwich culture). The seeding density, medium, culture plate 001 are not particularly limited.
After seeding, culture is started using a CO2 incubator under conditions of 5% CO2 and 37° C. After 18 hours or more elapse, a first medium exchange is performed. Although a medium used for culture from 18 hours after the seeding is not particularly limited, in this example, a medium obtained by excluding FCS from a medium (10% FCS+) to make a medium (herein after medium (FCS−)) and then adding matrigel thereto was used. After that, medium exchange is performed with the medium (FCS−) every 24 hours.
In this step, cells cultured in Step 0 are conditioned to a condition suitable for a drug assessment. An example will be shown below. The culture supernatant of cells cultured for 4 days in Step 0 is removed, […] of a Hanks' solution is added as a buffer, and then incubation is performed at 37° C. for 10 minutes (FIG. 2, Step 1).
In this step, a drug solution to be assessed is administered to cells. An example will be shown below. After removing the buffer, 200 μL of 10 μM CDF (fluorescent reagent) is added to a well, incubation is performed at 37° C. for 30 minutes, the well is then retained at 4° C. for 5 minutes (FIG. 2, Step 2). […]

[1] = Pattern 1, drug incubated 37° C. 30 minutes, fluorescence measurement

ratio of the bile duct excretion drug amount relative to the whole drug amount taken in the cells (BiRD), (B1-B2)/(C1+C2) [1]: 4.92 | ratio of the drug amount discharged via a transporter relative to the blood-vessel-side discharge drug amount (RexEMTP), (B2-B3)/B2 [1]: 52.52 | sup fraction (first blood-vessel-side discharge fraction, S1) (Pattern 2: total sum of Steps 4, 5 and 6 taken as 100%, Step 4 Hanks' solution 37° C. 30 minutes, in %): 39.29
Substance: Rhodamine 123
